Laboratory results as given in patent US20240423908A1, “Improved Nasal Administration of Parkinson's Therapeutics” (Cyrano Therapeutics, Inc., priority 2022, published 2024).

Tests used:
Assay type in all cases: in vivo
[1] = test system: Parkinson's disease; assay: Treatment of Parkinson's disease with a nasal spray composition (Examples 4 and 6)
From the text: (§1) A subject is admitted to a clinic for tremors and rigid muscles. The subject is diagnosed with Parkinson's disease. The subject is prescribed a rolipram composition in a nasal spray device described herein. The subject administers the nasal spray in an effective dose 2× daily in each naris. The nasal spray is characterized by a spray containing a D50 of about 15 μm to about 24 μm, a D90 of from about 30 μm to about 50 μm, and where less than about 3% of the droplets in the plume of a spray have a size of less than about 10 μm.
as §1, with “bradykinesia” for “tremors”, “impaired balance.” for “rigid muscles.”, “levodopa” for “rolipram”, “4×” for “2×”

[2] = test system: Alzheimer's disease; assay: Treatment of Alzheimer's disease with a nasal spray composition (Example 7); conditions: donepezil composition, nasal spray 3× daily in each naris
From the text: as §1, with “confusion” for “tremors”, “inability to concentrate.” for “rigid muscles.”, “Alzheimer's” for “Parkinson's”, “donepezil” for “rolipram”, “3×” for “2×”

[3] = test system: loss of taste associated with Parkinson's disease; assay: Treatment of chemosensory dysfunction in a Parkinson's disease patient (Example 5); conditions: theophylline composition, nasal spray 2× daily in each naris
From the text: A subject is admitted to a clinic for loss of taste associated with Parkinson's disease. The subject is diagnosed with chemosensory dysfunction. The subject is prescribed a theophylline composition in a nasal spray device described herein. The subject administers the nasal spray in an effective dose 2× daily in each naris. The nasal spray is characterized by a spray containing a D50 of about 15 μm to about 24 μm, a D90 of from about 30 μm to about 50 μm, and where less than about 3% of the droplets in the plume of a spray have a size of less than about 10 μm.

[4] = test system: chemosensory dysfunction associated with Parkinson's disease; assay: Treatment of Parkinson's disease chemosensory dysfunction with intranasal theophylline (Example 9); conditions: adult human male; about 0.4 ml per day of 3.1 mg/ml theophylline liquid composition, nasal spray twice daily in each naris; after 7 days
Procedure: An adult human subject was treated for chemosensory dysfunction associated with Parkinson's disease. […] The subject was administered about 0.4 ml per day of a liquid composition comprising theophylline at a concentration of 3.1 mg/ml in a nasal spray device described herein. The subject administered the nasal spray twice daily in each naris.

## N[C@@H](Cc1ccc(O)c(O)c1)C(=O)O [levodopa]
[1]; levodopa composition, nasal spray 4× daily in each naris
  bradykinesia and balance: reduced bradykinesia and improved balance

## COc1cc2c(cc1OC)C(=O)C(CC1CCN(Cc3ccccc3)CC1)C2 (centres unmarked) [donepezil]
[2]
  confusion and concentration: reduced confusion and improved concentration

## COc1ccc(C2CNC(=O)C2)cc1OC1CCCC1 (centres unmarked) [rolipram]
[1]; rolipram composition, nasal spray 2× daily in each naris
  symptoms of Parkinson's disease: reduced symptoms (e.g., reduced tremors and reduced muscle rigidity)

## Cn1c(=O)c2[nH]cnc2n(C)c1=O [theophylline]
[3]
  sense of taste: regains the sense of taste
[4]
  ability to taste and smell: regained their ability to taste and smell
